Experimental data: patent US5700480A, “Transdermal therapeutic system comprising galanthamine as active component” (priority 1993, dated 1997)

Tests used:
[1] = test system: cholinesterase; settings: cited from earlier work
[2] = vs physostigmine or neostigmine; cited from earlier work
[3] = penetration through excized rodent (mice) skin, Franz' diffusion cells; format: in vitro ADME; settings: galanthamine, mice skin in vitro; addition of the acid as penetration enhancer
Description: 150 g 52.8% (w/w) active substance-containing adhesive solution result which is spread on an aluminized and siliconized polyethylene sheet by means of a 350 μm coating knife. After the solvents have been removed by drying for 30 min. up to 60° C., the adhesive film is covered with a polyester sheet (15 μm). An area of 16 cm^2 is punched by means of a suitable cutting tool and the edges are separated off. The release relating to both this and the other examples is listed in the table; the list indicates both the controlled release into a physiological saline and through excized rodent skin.
The in-vitro-release was determined in a shaking water bath at 37° C. The acceptor medium was 100 ml physiological saline which was completely changed after 2, 4 and 8 hours. The concentration was determined by HPLC after 2, 4, and 8 and 24 hours. The penetration through mice skin was measured by means of Franz' diffusion cells.

Compound | penetration rate increase by addition of acid [3] | further results
COc1ccc2c3c1OC1CC(O)C=CC31CCN(C)C2 (centres unmarked) [galanthamine, 4a,5,9,10,11,12-hexahydro-3-methoxy-11-methyl-6H-benzofuro (3a,3,2-ef) (2) benzazepin-6-ol] |  | cholinesterase inhibition (in words) ([1]; pharmacological properties): reversibly acting cholinesterase inhibitors; cholinesterase inhibiting-action, relative to the dosage ([1]; vs physostigmine or neostigmine): slightly lower; therapeutic range [2]: three to six times broader; toxicity (in words) [2]: not as toxic as physostigmine or neostigmine
CCCCCCCC(=O)O [octanoic acid] | 1.5 factor | 
C=CCCCCCCCCC(=O)O [undecenoic acid] | 1.5 factor | 
CCCCCCCC/C=C\CCCCCCCC(=O)O [oleic acid] | 1.5 factor | 
CC(C)CCCCCCCCCCCCCCC(=O)O [isostearic acid] | 1.5 factor | 
